# According to paper PMC9959456, “Multiple-P450 Gene Co-Up-Regulation in the Development of Permethrin Resistance in the House Fly, Musca domestica” (International Journal of Molecular Sciences, 2023):
# Assays:
# [1] = molecular target: T1, CYP4S24 (Musca domestica, UniProt T1PEC4); experiment: HPLC substrate depletion, P450/CPR Sf9 microsomes; type: biochemical; conditions: 0.2 µM P450, NADPH-regenerating system, 0.25 mM MgCl2, pH 7.4, 30 °C, 120 min
# T1 construct: full length, co-expressed with house fly CPR (MOI 10:1) by baculovirus in Sf9 cells; microsomes; with NADPH--cytochrome P450 reductase
# T1 sequence (T1PEC4 1-496): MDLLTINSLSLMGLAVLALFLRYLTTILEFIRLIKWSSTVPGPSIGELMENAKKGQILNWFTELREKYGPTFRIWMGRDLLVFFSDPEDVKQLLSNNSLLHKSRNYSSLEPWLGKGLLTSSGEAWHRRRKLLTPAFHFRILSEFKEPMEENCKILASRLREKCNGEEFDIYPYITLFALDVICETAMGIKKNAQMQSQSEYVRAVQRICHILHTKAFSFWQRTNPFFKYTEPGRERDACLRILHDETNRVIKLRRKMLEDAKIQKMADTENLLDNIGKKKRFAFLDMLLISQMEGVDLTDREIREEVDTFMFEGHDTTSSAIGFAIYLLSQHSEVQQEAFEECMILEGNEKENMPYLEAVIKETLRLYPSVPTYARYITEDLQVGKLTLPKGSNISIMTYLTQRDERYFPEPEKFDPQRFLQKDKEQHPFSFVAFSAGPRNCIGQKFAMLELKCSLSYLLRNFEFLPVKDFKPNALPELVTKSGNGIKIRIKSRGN
# T1 sequence (Q07994 1-671 partner): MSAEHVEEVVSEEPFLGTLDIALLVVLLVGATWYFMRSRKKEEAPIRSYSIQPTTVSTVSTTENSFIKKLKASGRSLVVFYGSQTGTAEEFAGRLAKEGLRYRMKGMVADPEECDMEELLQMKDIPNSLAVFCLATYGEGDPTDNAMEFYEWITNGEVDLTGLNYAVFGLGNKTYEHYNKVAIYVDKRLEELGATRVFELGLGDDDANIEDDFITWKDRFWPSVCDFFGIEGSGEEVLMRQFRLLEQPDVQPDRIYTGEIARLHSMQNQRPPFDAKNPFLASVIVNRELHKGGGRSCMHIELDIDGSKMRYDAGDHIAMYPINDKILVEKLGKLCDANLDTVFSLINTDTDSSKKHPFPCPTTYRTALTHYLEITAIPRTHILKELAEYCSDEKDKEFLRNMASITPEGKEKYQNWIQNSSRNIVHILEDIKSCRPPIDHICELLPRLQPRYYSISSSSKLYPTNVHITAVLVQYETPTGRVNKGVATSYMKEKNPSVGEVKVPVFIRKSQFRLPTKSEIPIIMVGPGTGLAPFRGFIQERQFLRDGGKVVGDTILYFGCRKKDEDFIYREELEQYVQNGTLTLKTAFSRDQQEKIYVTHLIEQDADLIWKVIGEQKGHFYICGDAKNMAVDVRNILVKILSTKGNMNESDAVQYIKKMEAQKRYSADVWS
# [2] = molecular target: T2, CYP6A36 (Musca domestica, UniProt Q06S82); experiment: HPLC substrate depletion, P450/CPR Sf9 microsomes; type: biochemical; conditions: 20 µM cis/trans permethrin mixture, 0.2 µM P450, NADPH-regenerating system, 0.25 mM MgCl2, pH 7.4, 30 °C, 120 min
# T2 construct: full length, co-expressed with house fly CPR (MOI 10:1) by baculovirus in Sf9 cells; microsomes; with NADPH--cytochrome P450 reductase
# T2 sequence (Q06S82 1-507): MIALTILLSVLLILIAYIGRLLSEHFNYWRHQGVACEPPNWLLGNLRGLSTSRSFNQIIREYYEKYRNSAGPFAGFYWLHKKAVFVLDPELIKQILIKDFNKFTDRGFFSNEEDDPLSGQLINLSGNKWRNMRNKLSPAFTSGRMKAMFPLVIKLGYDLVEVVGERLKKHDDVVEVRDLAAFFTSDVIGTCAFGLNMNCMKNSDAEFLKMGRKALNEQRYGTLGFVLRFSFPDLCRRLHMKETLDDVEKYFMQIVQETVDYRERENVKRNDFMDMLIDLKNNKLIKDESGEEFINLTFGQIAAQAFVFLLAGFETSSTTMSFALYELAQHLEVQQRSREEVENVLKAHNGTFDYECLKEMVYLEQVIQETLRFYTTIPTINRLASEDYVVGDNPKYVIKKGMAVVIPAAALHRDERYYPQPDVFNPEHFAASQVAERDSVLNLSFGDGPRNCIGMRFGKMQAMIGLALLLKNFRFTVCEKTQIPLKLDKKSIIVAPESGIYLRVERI
# T2 sequence (Q07994 1-671 partner): T1 sequence (Q07994 1-671 partner)
structure (smiles),measurement,setting,value
O=Cc1cccc(Oc2ccccc2)c1 [PBald],"HPLC substrate depletion, P450/CPR Sf9 microsomes",[1]; 20 µM PBald,CYP4S24 exhibiting the highest ability to metabolize both PBalc and PBald
OCc1cccc(Oc2ccccc2)c1 [PBalc],"HPLC substrate depletion, P450/CPR Sf9 microsomes",[1]; 20 µM PBalc,CYP4S24 exhibiting the highest ability to metabolize both PBalc and PBald
CC1(C)C(C=C(Cl)Cl)C1C(=O)OCc1cccc(Oc2ccccc2)c1 (stereo not drawn) [trans-permethrin],"HPLC substrate depletion, P450/CPR Sf9 microsomes",[2],CYP6A36 showed the highest activity toward both trans- and cis-permethrin
